The values that follow come from PMC7793975, “Design and Optimization of Quinazoline Derivatives: New Non-nucleoside Inhibitors of Bovine Viral Diarrhea Virus” (Frontiers in Chemistry, 2020).

Structures are written as SMILES. In brackets after ≈: the same amount, converted by molar mass. Several values for one entry are separate records, joined by “and”; a condition that tells them apart may be missing. Equal entries are not always repeated. Where two headings read alike, the source gives them in different places.

Data set [1] can be described thus: Shake-flask solubility (UV-Vis). The format is physicochemical. The conditions noted are these: thermodynamic from solid. Here is the method:
Verapamil was used as internal control. More detailed information is available in the Supplementary Material.
(§1) UV-Visible spectrums were measured with a UV3600 UV -Vis-NIR spectrophotometer in a range of 500 -200 nm using a quartz cuvette. The measurements were determined at λ values corresponding to the maximum of absorption . Baselines were determined with MeOH :media (1:1) mixture . Sample concentrations were determined using maximum absorption value s. All compounds were tested in […]
(§2) Preparation of calibration curve
(§3) From this solution, different volumes were combined with MeOH:media (1:1) mixture to obtain concentrations between 2.0 – 40.0 µg/mL. […]
(§4) intestinal fluid (SIF, pH 6.8) or phosphate buffered saline solution (PBS, pH 7.4) was added. The vial contents were mixed at 1500 rpm at 37 °C for 24 h and then incubated at 37 °C for 24 h without stirring. Samples were filtered (0.2 μm, Sterile Acrodisc® 13, GelmanScience) before analysis.
(§5) The filtered solutions were diluted in MeOH:media (1:1) mixture to achieved final concentrations of 0.01 (SGF), 0.02 (SIF) and 0.04 µg/mL (PBS). Verapamil and pr ocaine were used as internal […]
(§6) DMSO and water/DMSO (98:2) stability […]
were measured in a range of 500-200 nm using a quartz cuvette and the absorption was determined at 331 nm. Samples with 1.0 mg of 1.9 in 1 mL of DMSO or water/DMSO (98:2) mixture were prepared, and they were kept at room temperature without stir ring. Independent samples were measured every 1 week over 5 weeks. For the measurements, solutions were diluted at 1/100 in DMSO and 1/50 in water:DMSO (98:2) mixture. The values in the chart are the mean of three

A short description of data set [2]: Bovine plasma stability (HPLC-MS). Format: in vitro ADME. Particulars: 120 min incubation, read-out: Stability t1/2 Bovine plasma. The protocol: (§7) Stability assays were performed according to the procedure described in a previous work (Leal et al., [2019]). Samples were taken at different incubation times and analyzed by high-performance liquid chromatography–mass spectrometry (HPLC–MS) using a Waters Alliance e2695 system (Waters Corporation, Milford, MA, USA) fitted with a Phenomenex Kinetex® XB-C18 column (150 × 4.6 mm, 5-μm particle size, Phenomenex Inc., Torrance, CA, USA) coupled to a Waters SQD2 single quadrupole mass spectrometer with an ESI source. A gradient elution was applied using 40% water and 0.1% acetic acid (mobile phase A) and 40% methanol (mobile phase B), with the following program: 0–3 min 40% B; 3–7 min 40–90% B; and 7–20 min 90% B. The flow rate was kept constant at 0.35 ml min^−1. […]
(§8) Compound 1.9 was selected to perform in vitro physicochemical studies (solubility and stability). The solubility (S) was evaluated at SGF (pH 1.2), SIF (pH 6.8), and PBS solution (pH 7.4), employing the shake-flask method with UV spectroscopy (Bollini et al., [2013]). […] The stability was evaluated by calculating the percentage of remaining drug (HPLC–MS) after contact with different incubation media (SIF, SGF, PBS, mouse, and bovine plasma) for 120 min. […] Neither compound modification nor degradation was detected after the different incubation periods. […]

A short description of data set [3]: Cytotoxicity assay (MTS/PMS). The conditions noted are these: bovine, MDBK cells. Here is the method:
(§9) (A) Cytotoxicity. Sub-confluent MDBK cell monolayers grown in 96-well plates were treated with 2-fold serial dilutions of each compound in IM. Mock-treated cells were added as control. Cells were incubated and allowed to proliferate for 3 days at 37°C and 5% CO2. Cell viability was then determined by the MTS/PMS method. (B) Antiviral activity. Sub-confluent MDBK cell monolayers grown in 96-well plates were infected with BVDV NADL (MOI = 0.01) and treated with different concentrations of the compounds. Mock-infected cells and mock-treated infected cells were included as controls in each plate. After 3 days at 37°C and 5% CO2, cell viability was determined by the MTS/PMS method, and the percentage of the viral CPE inhibition was calculated.
(§10) MDBK cells were seeded in 96-well plates at a density of 1 × 10^4 cells per well in GM. After 24 h, the culture medium was removed, monolayers were washed twice with phosphate-buffered saline (PBS), and serial dilutions of the test compounds were made in E-MEM supplemented with donor horse serum (DHS, Gibco, IM) and added. Cultures were incubated for 3 days at 37°C, and then, cell viability was determined by the MTS/PMS method according to the manufacturer's instructions (Promega). After incubation for 3 h at 37°C and 5% CO2, the absorbance was determined at 490 nm. The 50% cytotoxic concentration (CC50) was defined as the concentration of compound that inhibited the proliferation of exponentially growing cells by 50% and was calculated by interpolation in dose–response curves.

In a further data set the test system is MDBK cells. Put plainly: Cytotoxicity assay (MTS/PMS). The conditions noted are these: MDBK cells, 3 days. The protocol: as §9, §10
The next data set deals with BVDV type 1 NADL strain. Put plainly: Anti-BVDV assay (CPE reduction, MTS/PMS). The format is cell-based, Bovine viral diarrhea virus. The conditions noted are these: for EC50: BVDV NADL in MDBK cells, MOI 0.01, 3 days, reduces viral CPE by 50%, Inactive: <50% of inhibition of CPE at MNCC. The protocol:
(A) Cytotoxicity. […] Mock-treated cells were added as control. […] (B) Antiviral activity.
Madin-Darby bovine kidney cells (MDBK NBL-1; ATCC CCL-22) were grown in Eagle's Minimum Essential Medium (E-MEM), supplemented with 10% biotechnological fetal bovine serum (Internegocios, Argentina) (GM) at 37°C and 5% CO2. The BVDV type 1 NADL strain, cytopathic biotype (BVDV-1, ATCC VR 534), was provided by Dr. Laura Weber (INTA Castelar, Argentina).
Then, serial dilutions of the test compounds in IM were added. […] After incubation for 3 days at 37°C and 5% CO2, the culture medium was removed, cell monolayers were washed twice with PBS, and IM supplemented with MTS/PMS was added to each well. The absorbance of each well was read at 490 nm. The EC50 was defined as the concentration of compound that prevented 50% of the virus-induced CPE and was calculated by interpolation in dose–response curves.

A short description of data set [4]: DMSO and water/DMSO (98:2) stability (UV-Vis). The format is physicochemical. Particulars: room temperature. Here is the method: as §1, §2, §3, §4, §5, §6
were measured in a range of 500-200 nm using a quartz cuvette and the absorption was determined at 331 nm. Samples with 1.0 mg of 1.9 in 1 mL of DMSO or water/DMSO (98:2) mixture were prepared, and they were kept at room temperature without stir ring. Independent samples were measured every 1 week over 5 weeks. […]

Data set [5] in a line: Stability in SGF, SIF, PBS (HPLC-MS). The format is physicochemical. Here is the method: Stability assays were performed according to the procedure described in a previous work (Leal et al., [2019]). Samples were taken at different incubation times and analyzed by high-performance liquid chromatography–mass spectrometry (HPLC–MS) using a Waters Alliance e2695 system (Waters Corporation, Milford, MA, USA) fitted with a Phenomenex Kinetex® XB-C18 column (150 × 4.6 mm, 5-μm particle size, Phenomenex Inc., Torrance, CA, USA) coupled to a Waters SQD2 single quadrupole mass spectrometer with an ESI source. A gradient elution was applied using 40% water and 0.1% acetic acid (mobile phase A) and 40% methanol (mobile phase B), with the following program: 0–3 min 40% B; 3–7 min 40–90% B; and 7–20 min 90% B. The flow rate was kept constant at 0.35 ml min^−1. After each sample injection, the gradient was returned to its initial conditions in 16 min. The injection volume was 5 μl. The column temperature was 35°C. The mass spectrometer was operated in positive ion mode with a probe capillary voltage of 2.5 kV. The sampling cone voltage was set to 35.0 V. The source and desolvation gas temperatures were set at 150 and 350°C, respectively. The nitrogen gas desolvation flow rate was 600 L h^−1, and the cone gas flow rate was 10 L h^−1. The mass spectrometer was calibrated across the range of m/z 20–2,023 with a sodium and cesium iodide solution. Data were acquired in scan mode with a scan duration of 0.2 s and in SIR mode with unit resolution. Data acquisition and processing were carried out using MassLynx software, version 4.1. […]
as §8

Data set [6] can be described thus: Mouse plasma stability (HPLC-MS). Format: in vitro ADME. The conditions noted are these: mouse/murine plasma, 120 min incubation; read-out: Stability t1/2 Mouse/murine plasma. Here is the method:
as §7, §8

What is called solubility is how much of the substance goes into solution per volume. In general, CC50 refers to the concentration at which the toxic effect on the cells reaches its halfway point. High values mean better tolerance by the cells, low ones harm at low concentration. What is called EC50 is the concentration at which the effect is half-maximal. In the case of `OCCN1CCN(c2nc(-c3ccccc3)nc3ccccc23)CC1` [Compound 1.9, 2-[4-(2-Phenylquinazolin-4-yl)piperazin-1-yl]ethanol], the solubility at 24 h in data set [1] (phosphate buffered saline (PBS), aqueous buffer, PBS pH 7.4, 37 °C, read-out: Solubility PBS) is 300 ± 100 µg/mL (≈ 897 µM); in data set [1] (simulated gastric fluid (SGF), simulated gastric fluid pH 1.2, 37 °C, read-out: Solubility SGF), 8700 ± 400 µg/mL (≈ 26000 µM); in data set [1] (simulated intestinal fluid (SIF), fassgf or other biorelevant, simulated intestinal fluid pH 6.8, 37 °C, read-out: Solubility SIF), 400 ± 200 µg/mL (≈ 1200 µM). The half-life in data set [2] is greater than 2 h; in data set [5] (PBS pH 7.4, 120 min incubation, read-out: Stability t1/2 PBS) it was greater than 2 h; in data set [5] (simulated gastric fluid (SGF), SGF pH 1.2, 120 min incubation, read-out: Stability t1/2 SGF), greater than 2 h; in data set [5] (simulated intestinal fluid (SIF), SIF pH 6.8, 120 min incubation, read-out: Stability t1/2 SIF), greater than 2 h; in data set [6], greater than 2 h. This compound also registered a CC50 at 3 days in data set [3] of 32000 ± 1900 nM. Besides, the “MNCC (maximum non-cytotoxic concentration)” value in the data set on MDBK cells is 12.5 µM and 12.5 ± 2.4 µM. The EC50 in the data set with BVDV type 1 NADL strain (read-out: EC50) stood at 1800 ± 400 nM; in the data set on BVDV type 1 NADL strain (Bovine viral diarrhea virus isolates and strains, MDBK, 72 h) it was 1700 ± 400 nM. In addition, in the data set on BVDV type 1 NADL strain (in vitro selectivity index, MDBK cells / BVDV NADL), the “SI (CC50/EC50)” value worked out at 17.8. In data set [4] (1.0 mg/mL in DMSO), the “time stable in DMSO” value is no less than 5 weeks. Further, the “time stable in water/DMSO (98:2)” value in data set [4] (1.0 mg/mL in water/DMSO (98:2)) is on record as no less than 5 weeks.
